Laboratory results from patent US7462600B2, “Macrolides” (Pfizer Inc, priority 2004, dated 2008).
≈ marks a conversion by molar mass, not a printed value. Read-outs that look alike come from different tables or passages of the source.

What was measured:
Assay type in all cases: cell-based
[1] = system: Streptococcus pyogenes 1079; test: MIC, microtiter broth dilution (NCCLS M100-S14), S. pyogenes 1079 (ermB)
How it was run: (§1)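 Panel strains, including macrolide-resistant isolates and their susceptible parents where available, are exposed to serial compound dilutions in microtiter trays. Growth inhibition is scored as MIC under NCCLS M100-S14 standards.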

[2] = system: Streptococcus pneumoniae 1016; test: MIC, microtiter broth dilution (NCCLS M100-S14), S. pneumoniae 1016 (susceptible)
How it was run: as §1

[3] = system: Streptococcus pneumoniae 1095; settings: microtiter broth dilution
How it was run: as §1

[4] = system: Streptococcus pneumoniae 1175; settings: microtiter broth dilution
How it was run: as §1

[5] = system: Haemophilus influenzae 1218; test: MIC, microtiter broth dilution (NCCLS M100-S14), H. influenzae 1218 (susceptible)
How it was run: as §1

[6] = S. pneumoniae 1016 (susceptible)
[7] = H. influenzae 1218 (susceptible)

Compound	MIC S. pyogenes 1079 ([1]; Streptococcus pyogenes 1079) [µg/mL]	MIC S. pneumo. 1016 ([2]; Streptococcus pneumoniae 1016) [µg/mL]	MIC S. pneumo. 1095 ([3]; Streptococcus pneumoniae 1095) [µg/mL]	MIC S. pneumo. 1175 ([4]; Streptococcus pneumoniae 1175) [µg/mL]	MIC H. influenzae 1218 ([5]; Haemophilus influenzae 1218) [µg/mL]	MIC S. pyogenes 1079 ([1]; S. pyogenes 1079 (ermB)) [µg/mL]	MIC S. pneumo. 1016 [2, 6] [µg/mL]	MIC S. pneumo. 1095 ([3]; S. pneumoniae 1095 (ermB)) [µg/mL]	MIC S. pneumo. 1175 ([4]; S. pneumoniae 1175 (mefA)) [µg/mL]	MIC H. influenzae 1218 [5, 7] [µg/mL]
CCC1OC(=O)C(C)C(=O)C(C)C(OC2OC(C)CC(N(C)C)C2O)C(C)(OC)CC(C)C(=O)C(C)C2N(C3CN(C(=O)c4ccc(-n5cccn5)nc4)C3)C(=O)OC12C (stereo not shown) [Example 2.20]	>64.00	<0.06	1 (≈ 1.19 µM)	0.12 (≈ 0.143 µM)	16 (≈ 19.1 µM)					
CCC1OC(=O)C(C)C(=O)C(C)C(OC2OC(C)CC(N(C)C)C2O)C(C)(OC)CC(C)C(=O)C(C)C2N(CC3CCCN3C(=O)c3cccc4[nH]cnc34)C(=O)OC12C (stereo not shown) [10.52]						64 (≈ 76.2 µM)	<0.06	<0.06	<0.06	0.25 (≈ 0.298 µM)
CCC1OC(=O)C(C)C(=O)C(C)C(OC2OC(C)CC(N(C)C)C2O)C(C)(OC)CC(C)C(=O)C(C)C2N(CC3CN(Cc4cccc5nc[nH]c45)C3)C(=O)OC12C (stereo not shown) [4.20]	16 (≈ 19.7 µM)	<0.06	0.12 (≈ 0.148 µM)	0.25 (≈ 0.308 µM)	0.25 (≈ 0.308 µM)					
CCC1OC(=O)C(C)C(=O)C(C)C(OC2OC(C)CC(N(C)C)C2O)C(C)(OC)CC(C)C(=O)C(C)C2N(C3CN(S(=O)(=O)c4ccc(-n5cccn5)c(C#N)c4)C3)C(=O)OC12C (stereo not shown) [Example 3.50]	0.25 (≈ 0.278 µM)	<0.06	<0.06	<0.06	1 (≈ 1.11 µM)					
CCC1OC(=O)C(C)C(=O)C(C)C(OC2OC(C)CC(N(C)C)C2O)C(C)(OC)CC(C)C(=O)C(C)C2N(CC3CCCN3C(=O)c3cc4ccccc4cn3)C(=O)OC12C (stereo not shown) [12.09]						>64.00	<0.06	1 (≈ 1.18 µM)	1 (≈ 1.18 µM)	2 (≈ 2.35 µM)
CCC1OC(=O)C(C)C(=O)C(C)C(OC2OC(C)CC(N(C)C)C2O)C(C)(OC)CC(C)C(=O)C(C)C2N(CC3CCCN3C(=O)c3cc4cnccc4nc3C)C(=O)OC12C (stereo not shown) [10.41]						>64.00	<0.06	<0.06	<0.06	2 (≈ 2.31 µM)
CCC1OC(=O)C(C)C(=O)C(C)C(OC2OC(C)CC(N(C)C)C2O)C(C)(OC)CC(C)C(=O)C(C)C2N(C3CN(S(=O)(=O)c4ccc(-c5nnn[nH]5)cc4)C3)C(=O)OC12C (stereo not shown) [Example 3.84, 4-(1H-tetrazol-5-yl)benzenesulfonyl]	>64.00	1 (≈ 1.14 µM)	>64.00	16 (≈ 18.3 µM)	32 (≈ 36.5 µM)					
CCC1OC(=O)C(C)C(=O)C(C)C(OC2OC(C)CC(N(C)C)C2O)C(C)(OC)CC(C)C(=O)C(C)C2N(CC3CCN(C(=O)c4cnc5ccccc5c4)C3)C(=O)OC12C (stereo not shown) [13.10]						>64.00	<0.06	>64.00	0.25 (≈ 0.294 µM)	4 (≈ 4.7 µM)
CCC1OC(=O)C(C)C(=O)C(C)C(OC2OC(C)CC(N(C)C)C2O)C(C)(OC)CC(C)C(=O)C(C)C2N(CC3CCCN3C(=O)c3cc4ccncc4[nH]3)C(=O)OC12C (stereo not shown) [10.34]						>64.00	<0.06	0.12 (≈ 0.143 µM)	0.12 (≈ 0.143 µM)	2 (≈ 2.38 µM)
CCC1OC(=O)C(C)C(=O)C(C)C(OC2OC(C)CC(N(C)C)C2O)C(C)(OC)CC(C)C(=O)C(C)C2N(C3CN(Cc4cccc5cccnc45)C3)C(=O)OC12C (stereo not shown) [Example 1.05, (quinolin-8-yl)methyl]	64 (≈ 79.1 µM)	<0.06	<0.06	0.12 (≈ 0.148 µM)	0.25 (≈ 0.309 µM)					
CCC1OC(=O)C(C)C(=O)C(C)C(OC2OC(C)CC(N(C)C)C2O)C(C)(OC)CC(C)C(=O)C(C)C2N(CC3CN(Cc4c[nH]c5ccccc45)C3)C(=O)OC12C (stereo not shown) [4.11]	64 (≈ 78.9 µM)	<0.06	4 (≈ 4.93 µM)	2 (≈ 2.47 µM)	1 (≈ 1.23 µM)					
CC[C@H]1OC(=O)[C@H](C)C(=O)[C@H](C)[C@@H](O[C@@H]2O[C@H](C)C[C@H](N(C)C)[C@H]2O)[C@](C)(OC)C[C@@H](C)C(=O)[C@H](C)[C@H]2N(CC3(O)CN(C(=O)c4cnc5ncccc5c4)C3)C(=O)O[C@]12C [7.25]						>64.00	<0.06	<0.06	2 (≈ 2.34 µM)	1 (≈ 1.17 µM)
CCC1OC(=O)C(C)C(=O)C(C)C(OC2OC(C)CC(N(C)C)C2O)C(C)(OC)CC(C)C(=O)C(C)C2N(CC3CN(Cc4cnn(-c5cccc(F)c5)c4)C3)C(=O)OC12C (stereo not shown) [4.21]	64 (≈ 74.8 µM)	<0.06	2 (≈ 2.34 µM)	<0.06	0.5 (≈ 0.584 µM)					
CCC1OC(=O)C(C)C(=O)C(C)C(OC2OC(C)CC(N(C)C)C2O)C(C)(OC)CC(C)C(=O)C(C)C2N(C3CN(Cc4ccnc5nccnc45)C3)C(=O)OC12C (stereo not shown) [Example 1.24, 3-descladinosyl-11,12-dideoxy-6-O-methyl-3-oxo-12,11-(oxycarbonyl-(1-((pyrido[2,3-b]pyrazin-4-yl)-methy)-azetidin-3-yl)-imino)-erythromycin A]	4 (≈ 4.93 µM)	<0.06	<0.06	0.25 (≈ 0.308 µM)	1 (≈ 1.23 µM)					
CCC1OC(=O)C(C)C(=O)C(C)C(OC2OC(C)CC(N(C)C)C2O)C(C)(OC)CC(C)C(=O)C(C)C2N(C3CN(Cc4ccc(OC)c5ncccc45)C3)C(=O)OC12C (stereo not shown) [Example 1.70, 3-descladinosyl-11,12-dideoxy-6-O-methyl-3-oxo-12,11-(oxycarbonyl-(1-(8-methoxyquinoline-5-methyl)-azetidin-3-yl)-imino)-erythromycin A]	2 (≈ 2.38 µM)	<0.063	<0.063	<0.063	1 (≈ 1.19 µM)					
CCC1OC(=O)C(C)C(=O)C(C)C(OC2OC(C)CC(N(C)C)C2O)C(C)(OC)CC(C)C(=O)C(C)C2N(C3CN(Cc4cccc(-c5cnco5)c4)C3)C(=O)OC12C (stereo not shown) [Example 1.47, 3-(oxazol-5-yl)benzyl]	64 (≈ 77.6 µM)	<0.06	<0.06	<0.06	0.25 (≈ 0.303 µM)					
CCC1OC(=O)C(C)C(=O)C(C)C(OC2OC(C)CC(N(C)C)C2O)C(C)(OC)CC(C)C(=O)C(C)C2N(C3CN(S(=O)(=O)c4cccc5cnccc45)C3)C(=O)OC12C (stereo not shown) [Example 3.04, 3-descladinosyl-11,12-dideoxy-6-O-methyl-3-oxo-12,11-(oxycarbonyl-(1-(isoquinoline-5-sulfonyl)-azetidin-3-yl)-imino)-erythromycin A]	0.12 (≈ 0.14 µM)	<0.06	<0.06	<0.06	0.25 (≈ 0.291 µM)					
CCC1OC(=O)C(C)C(=O)C(C)C(OC2OC(C)CC(N(C)C)C2O)C(C)(OC)CC(C)C(=O)C(C)C2N(CC3CCN(Cc4nc5ccccc5n4C)C3)C(=O)OC12C (stereo not shown) [11.06]						>64.00	<0.06	2 (≈ 2.38 µM)	2 (≈ 2.38 µM)	4 (≈ 4.76 µM)
CCC1OC(=O)C(C)C(=O)C(C)C(OC2OC(C)CC(N(C)C)C2O)C(C)(OC)CC(C)C(=O)C(C)C2N(C3CN(Cc4cccnc4)C3)C(=O)OC12C (stereo not shown) [Example 1.03, (pyridin-3-yl)methyl]	>64.00	<0.06	<0.06	2 (≈ 2.64 µM)	0.5 (≈ 0.659 µM)					
CCC1OC(=O)C(C)C(=O)C(C)C(OC2OC(C)CC(N(C)C)C2O)C(C)(OC)CC(C)C(=O)C(C)C2N(C3CN(C(=O)c4ccnc(-c5noc(C)n5)c4)C3)C(=O)OC12C (stereo not shown) [Example 2.18]	>64.00	<0.06	>64.00	0.5 (≈ 0.585 µM)	32 (≈ 37.4 µM)					
CCC1OC(=O)C(C)C(=O)C(C)C(OC2OC(C)CC(N(C)C)C2O)C(C)(OC)CC(C)C(=O)C(C)C2N(CC3CCN(Cc4ccc5cccc(O)c5n4)C3)C(=O)OC12C (stereo not shown) [13.04]						64 (≈ 75 µM)	<0.06	1 (≈ 1.17 µM)	0.25 (≈ 0.293 µM)	1 (≈ 1.17 µM)
CCC1OC(=O)C(C)C(=O)C(C)C(OC2OC(C)CC(N(C)C)C2O)C(C)(OC)CC(C)C(=O)C(C)C2N(CC3CN(Cc4cnn5ccccc45)C3)C(=O)OC12C.O=CO (stereo not shown) [4.42]	>64.00	<0.06	0.5	<0.06	0.12					
CCC1OC(=O)C(C)C(=O)C(C)C(OC2OC(C)CC(N(C)C)C2O)C(C)(OC)CC(C)C(=O)C(C)C2N(CC3C4CN(C(=O)c5cccc(C#N)c5)CC43)C(=O)OC12C (stereo not shown) [16.05]						3.12 (≈ 3.73 µM)	0.01 (≈ 0.0119 µM)	1.56 (≈ 1.86 µM)	1.56 (≈ 1.86 µM)	0.5 (≈ 0.597 µM)
